A short description of assay [1]: PCSK9 mRNA reduction in HepG2 cells, late-stage follow-up, mechanism study for TRIB1 upregulator project, cell-based, RT-qPCR, cherry-pick (AID 1053137). The note with it: HepG2 PCSK9 mRNA, qRT-PCR, overnight; measured here: maximal PCSK9 expression inhibition; stronger effect = higher value. For orientation: Real-time PCR tracks product formation cycle by cycle.
Assay [2] relates to HepG2 PCSK9 mRNA, qRT-PCR, overnight. The assay is described as above.

Here are results for 2 molecules from PubChem BioAssay AID1053137 (Broad Institute, 2014).

Broadly, the inhibition is the drop in the measured response relative to a control, in per cent. The term AC50 denotes the concentration at which the activity in the assay is half-maximal. As to `CN1C(=O)c2cc(NC(=O)c3ccc(C(F)(F)F)cc3)ccc2OC[C@@H]2O[C@@H](CC(=O)NC3Cc4ccccc4C3)CC[C@@H]21`, the inhibition in assay [1] is 87%. In addition, the AC50 in assay [2] is 870 nM.

`CN1C(=O)c2cc(NC(=O)c3ccc(C(F)(F)F)cc3)ccc2OC[C@@H]2O[C@H](CC(=O)NC3Cc4ccccc4C3)CC[C@@H]21` yielded an inhibition in assay [1] of 85%. The AC50 in assay [2] was 110 nM.
